Results as given in patent publication US11976061B2, “Preparation of benzimidazolone derivatives as novel diacylglyceride O-acyltransferase 2 inhibitors” (Merck Sharp & Dohme LLC, priority 2020, dated 2024).
pIC50: −log10 of the molar value. Read-outs that look alike come from different tables or passages of the source.

Target: T1, human DGAT2 (hDGAT2) (Homo sapiens, UniProt Q96PD7)
T1 construct: made in house; host or cells: Sf-9 insect cells (baculovirus), membrane fraction
T1 sequence (Q96PD7 1-388): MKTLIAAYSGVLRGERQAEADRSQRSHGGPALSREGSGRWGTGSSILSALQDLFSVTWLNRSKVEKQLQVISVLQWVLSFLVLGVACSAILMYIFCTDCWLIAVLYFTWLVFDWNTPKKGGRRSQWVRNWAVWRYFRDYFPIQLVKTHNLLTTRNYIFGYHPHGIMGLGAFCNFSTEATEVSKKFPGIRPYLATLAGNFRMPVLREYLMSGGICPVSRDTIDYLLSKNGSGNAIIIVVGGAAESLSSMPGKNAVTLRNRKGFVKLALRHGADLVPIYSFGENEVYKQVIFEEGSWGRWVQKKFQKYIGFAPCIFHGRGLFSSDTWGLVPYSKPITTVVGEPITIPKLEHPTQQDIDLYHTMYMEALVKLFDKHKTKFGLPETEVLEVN
Assay: DGAT2 Enzymatic Activity Assay
Assay type: biochemical
Details: membrane prep of Sf-9 cells expressing hDGAT2, 25 μM diolein, 5 μM 13C oleoyl-CoA, 13C18-triolein by LC/MS/MS
Experimental: Insect Cell Expression and Membrane Preparation
Sf-9 insect cells were maintained in Grace's insect cell culture medium with 10% heated-inactivated fetal bovine serum, 1% Pluronic F-68 and 0.14 μg/ml Kanamycine sulfate at 27° C. in a shaker incubator. After infection with untagged baculovirus expressing human DGAT2 (hDGAT2) at multiplicity of infection (MOI) 3 for 48 hours, cells were harvested. Cell pellets were suspended in buffer containing 10 mM Tris-HCl pH 7.5, 1 mM EDTA, 250 mM sucrose and Complete Protease Inhibitor Cocktail (Sigma Aldrich), and sonicated on ice. Cell debris were removed by centrifugation at 2000×g for 15 minutes. Membrane fractions were isolated by ultracentrifugation (100,000×g), resuspended in the same buffer, and frozen (−80° C.) for later use. The protein concentration was determined with the Pierce™ BCA Protein Assay Kit (Thermo Fisher Scientific). Expression of protein levels was analyzed by immunoblotting with rabbit anti-DGAT2 antibody (Abcam, ab102831) and donkey anti-rabbit IgG H&L Alexa Fluor® 647 (Abcam, ab150075) followed by detection using Typhoon FLA9000 (GE Healthcare).
LC/MS/MS analyses were performed using Thermal Fisher's LX4-TSQ Vantage system. This system consists of an Agilent binary high-performance liquid chromatography (HPLC) pump and a TSQ Vantage triple quadrupole MS/MS instrument. For each sample, 2 μL samples from the top organic layer of in-plate liquid-liquid extraction were injected onto a Thermo Betabasic C4 column (2.1 mm×20 mm, 5 μm particle size). The samples were then eluted using the following conditions; mobile phase: Isopropanol:acetonitrile/10 mM ammonium formate=50/35/15 (v/v/v), flow rate: 0.8 mL/min, temperature: 25° C. Data was acquired in positive mode using a heated electrospray ionization (HESI) interface. The operational parameters for the TSQ Vantage MS/MS instrument were a spray voltage of 3000 V, capillary temperature of 280° C., vaporizer temperature 400° C., sheath gas 45 arbitrary unit, Aux gas 10 arbitrary units, S-lens 165 and collision gas 1.0 mTorr. […] (SRM) chromatograms of ^13C18-triolein (Q1: 920.8>Q3: 621.3) and internal standard ^13C21-triolein (Q1: 923.8>Q3: 617.3) were collected for 33 sec. The peak area was integrated by Xcalibur Quan software. The ratio between the ^13C18triolein generated in the reaction and spiked in internal standard ^13C21-triolein was used to generate percentage inhibition and IC50 values. Compound percentage inhibition was calculated by the following formula: Inhibition %=1−[(compound response−low control)/(high control−low control)]×100%. Potent compounds were titrated and IC50 were calculated by 4 parameter sigmoidal curve fitting formula.
DGAT2 Enzymatic Activity Assay
DGAT2 activity was determined by measuring the amount of enzymatic product ^13C18-triolein (^13C-1,2,3-Tri(cis-9-octadecenoyl)glycerol) using the membrane prep mentioned above. The assay was carried out in ABgene 384-well assay plates in a final volume of 25 μL at rt. The assay mixture contained the following: assay buffer (100 mM Tris·Cl, pH 7.0, 20 mM MgCl2, 5% ethanol), 25 μM of diolein, 5 μM of ^13C oleoyl-CoA and 8 ng/μL of DGAT2 membrane.

| pIC50 (read-out: DGAT2 IC50) | pIC50 (read-out: Human DGAT2 IC50) | Compound |
| --- | --- | --- |
| 6.91 |  | CCOc1cc(-n2c(=O)n(C(C)C(C)(C)O)c3cc(C(=O)NC4(C)CS(=O)(=O)C4)ccc32)c(F)cn1 (single isomer, unassigned) [Example 78a, 1-(2-ethoxy-5-fluoropyridin-4-yl)-3-(3-hydroxy-3-methylbutan-2-yl)-N-(3-methyl-1,1-dioxidothietan-3-yl)-2-oxo-2,3-dihydro-1H-benzo[d]imidazole-5-carboxamide] |
| 7.89 |  | CCOc1cc(-n2c(=O)n(C(C)C(C)(C)O)c3cc(C(=O)NC4(C)CS(=O)(=O)C4)ccc32)c(F)cn1 (single isomer, unassigned) [Example 78b, 1-(2-ethoxy-5-fluoropyridin-4-yl)-3-(3-hydroxy-3-methylbutan-2-yl)-N-(3-methyl-1,1-dioxidothietan-3-yl)-2-oxo-2,3-dihydro-1H-benzo[d]imidazole-5-carboxamide] |
|  | 7.47 | CC(C)n1c(=O)n(-c2cc(OC(F)F)ncc2F)c2ccc(C(=O)NC3(C)CCS(=O)(=O)CC3)cc21 [Example 5, 1-(2-(Difluoromethoxy)-5-fluoropyridin-4-yl)-3-isopropyl-N-(4-methyl-1,1-dioxidotetrahydro-2H-thiopyran-4-yl)-2-oxo-2,3-dihydro-1H-benzo[d]imidazole-5-carboxamide] |

The remaining lines, values behind:

| Compound | pIC50 (read-out: DGAT2 IC50) | pIC50 (read-out: Human DGAT2 IC50) |
| --- | --- | --- |
| C[C@@]1(NC(=O)c2ccc3c(c2)n(-c2ccc(F)cc2)c(=O)n3-c2ccc(F)cc2)CCS(=O)(=O)C1 [Example 1, (R)-1,3-bis(4-fluorophenyl)-N-(3-methyl-1,1-dioxidotetrahydrothiophen-3-yl)-2-oxo-2,3-dihydro-1H-benzo[d]imidazole-5-carboxamide] |  | 6.24 |
| CC1(NC(=O)c2ccc3c(c2)n(-c2ccc(F)cc2)c(=O)n3-c2cccc(OC(F)F)c2)CS(=O)(=O)C1 [Example 2, 1-(3-(difluoromethoxy)phenyl)-3-(4-fluorophenyl)-N-(3-methyl-1,1-dioxidothietan-3-yl)-2-oxo-2,3-dihydro-1H-benzo[d]imidazole-5-carboxamide] |  | 8.74 |
| C[C@@]1(NC(=O)c2ccc3c(c2)n(-c2ccc(F)cc2)c(=O)n3-c2cccc(OC(F)F)c2)CCS(=O)(=O)C1 [Example 3, (R)-1-(3-(difluoromethoxy)phenyl)-3-(4-fluorophenyl)-N-(3-methyl-1,1-dioxidotetrahydrothiophen-3-yl)-2-oxo-2,3-dihydro-1H-benzo[d]imidazole-5-carboxamide] |  | 8.62 |
| CC1(NC(=O)c2cnc3c(c2)n(-c2ccc(F)cc2)c(=O)n3-c2cccc(OC(F)F)c2)CS(=O)(=O)C1 [Example 4, 3-(3-(difluoromethoxy)phenyl)-1-(4-fluorophenyl)-N-(3-methyl-1,1-dioxidothietan-3-yl)-2-oxo-2,3-dihydro-1H-imidazo[4,5-b]pyridine-6-carboxamide] |  | 8.07 |
| CC(C)Oc1cccc(-n2c(=O)n(C(C)C)c3cc(C(=O)NC4(C)CS(=O)(=O)C4)ccc32)c1 [Example 6, 1-(3-isopropoxyphenyl)-3-isopropyl-N-(3-methyl-1,1-dioxo-thietan-3-yl)-2-oxo-benzimidazole-5-carboxamide] |  | 7.06 |
| CC(C)n1c(=O)n(-c2cccc(OC(F)(F)C(F)F)c2)c2ccc(C(=O)NC3(C)CS(=O)(=O)C3)cc21 [Example 7, 3-isopropyl-N-(3-methyl-1,1-dioxo-thietan-3-yl)-2-oxo-1-[3-(1,1,2,2-tetrafluoroethoxy)phenyl]benz-imidazole-5-carboxamide] |  | 7.80 |
| CC(C)n1c(=O)n(-c2cccc(OCC(F)F)c2)c2ccc(C(=O)NC3(C)CS(=O)(=O)C3)cc21 [Example 8, 1-[3-(2,2-difluoroethoxy)phenyl]-3-isopropyl-N-(3-methyl-1,1-dioxo-thietan-3-yl)-2-oxo-benzimidazole-5-carboxamide] |  | 7.37 |
| CCOc1cccc(-n2c(=O)n(C(C)C)c3cc(C(=O)NC4(C)CS(=O)(=O)C4)ccc32)c1 [Example 9, 1-(3-ethoxyphenyl)-3-isopropyl-N-(3-methyl-1,1-dioxo-thietan-3-yl)-2-oxo-benzimidazole-5-carboxamide] |  | 8.37 |
